According to PubChem BioAssay (NCI):
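Each compound was tested at five concentrations against cells in 96-well plates for 48 hours. GI50: concentration for 50% inhibition of growth. TGI: concentration producing complete growth inhibition.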

Assays:
Assay in all cases: NCI-60 cell line screen, 48 h
786-0 renal = system: 786-0 renal
A498 renal = system: A498 renal
A549 NSCLC = system: A549 NSCLC
ACHN renal = system: ACHN renal
BT-549 breast = system: BT-549 breast
CAKI-1 renal = system: CAKI-1 renal
CCRF-CEM leukemia = system: CCRF-CEM leukemia
COLO 205 colon = system: COLO 205 colon
DU-145 prostate = system: DU-145 prostate
EKVX NSCLC = system: EKVX NSCLC
HCC-2998 colon = system: HCC-2998 colon
HCT-116 colon = system: HCT-116 colon
HCT-15 colon = system: HCT-15 colon
HL-60(TB) leukemia = system: HL-60(TB) leukemia
HOP-62 NSCLC = system: HOP-62 NSCLC
HOP-92 NSCLC = system: HOP-92 NSCLC
HS 578T breast = system: HS 578T breast
HT29 colon = system: HT29 colon
IGROV1 ovarian = system: IGROV1 ovarian
K-562 leukemia = system: K-562 leukemia
KM12 colon = system: KM12 colon
LOX IMVI melanoma = system: LOX IMVI melanoma
M14 melanoma = system: M14 melanoma
MALME-3M melanoma = system: MALME-3M melanoma
MCF7 breast = system: MCF7 breast
MDA-MB-231 breast = system: MDA-MB-231 breast
MDA-MB-435 = system: MDA-MB-435
MOLT-4 leukemia = system: MOLT-4 leukemia
NCI-H226 lung = system: NCI-H226 lung
NCI-H23 lung = system: NCI-H23 lung
NCI-H460 lung = system: NCI-H460 lung
NCI-H522 lung = system: NCI-H522 lung
NCI/ADR-RES ovarian = system: NCI/ADR-RES ovarian
OVCAR-3 ovarian = system: OVCAR-3 ovarian
OVCAR-4 ovarian = system: OVCAR-4 ovarian
OVCAR-5 ovarian = system: OVCAR-5 ovarian
OVCAR-8 ovarian = system: OVCAR-8 ovarian
PC-3 prostate = system: PC-3 prostate
RPMI-8226 leukemia = system: RPMI-8226 leukemia
RXF 393 renal = system: RXF 393 renal
SF-268 CNS = system: SF-268 CNS
SF-295 CNS = system: SF-295 CNS
SF-539 CNS = system: SF-539 CNS
SK-MEL-2 melanoma = system: SK-MEL-2 melanoma
SK-MEL-28 melanoma = system: SK-MEL-28 melanoma
SK-MEL-5 melanoma = system: SK-MEL-5 melanoma
SK-OV-3 ovarian = system: SK-OV-3 ovarian
SN12C renal = system: SN12C renal
SNB-19 CNS = system: SNB-19 CNS
SNB-75 CNS = system: SNB-75 CNS
SR leukemia = system: SR leukemia
SW-620 colon = system: SW-620 colon
T-47D breast = system: T-47D breast
TK-10 renal = system: TK-10 renal
U251 CNS = system: U251 CNS
UACC-257 melanoma = system: UACC-257 melanoma
UACC-62 melanoma = system: UACC-62 melanoma
UO-31 renal = system: UO-31 renal

Question: What does the source list for `Cc1cc2nc(CS)[nH]c2cc1C`?
Answer: GI50 (786-0 renal): 17.7 µM; TGI (786-0 renal): 34.3 µM; GI50 (A498 renal): 18.9 µM; TGI (A498 renal): > 100 µM; GI50 (A549 NSCLC): 36.8 µM; TGI (A549 NSCLC): > 100 µM; GI50 (ACHN renal): 15.4 µM; TGI (ACHN renal): 30.6 µM; GI50 (BT-549 breast): 24.5 µM; TGI (BT-549 breast): 66.5 µM; GI50 (CAKI-1 renal): 16.9 µM; TGI (CAKI-1 renal): 35.9 µM; GI50 (CCRF-CEM leukemia): 5.44 µM; TGI (CCRF-CEM leukemia): 75.1 µM; GI50 (COLO 205 colon): 23.6 µM; TGI (COLO 205 colon): 98.5 µM; GI50 (DU-145 prostate): 20.8 µM; TGI (DU-145 prostate): 48.5 µM; GI50 (EKVX NSCLC): 25.1 µM; TGI (EKVX NSCLC): > 100 µM; GI50 (HCC-2998 colon): 22.9 µM; TGI (HCC-2998 colon): 66.2 µM; GI50 (HCT-116 colon): 14.9 µM; TGI (HCT-116 colon): 29.4 µM; GI50 (HCT-15 colon): 18.6 µM; TGI (HCT-15 colon): 43.7 µM; GI50 (HL-60(TB) leukemia): 12.4 µM; TGI (HL-60(TB) leukemia): > 100 µM; GI50 (HOP-62 NSCLC): 15.2 µM; TGI (HOP-62 NSCLC): 30.7 µM; GI50 (HOP-92 NSCLC): 18.8 µM; TGI (HOP-92 NSCLC): 76.3 µM; GI50 (HS 578T breast): 23.3 µM; TGI (HS 578T breast): 85.5 µM; GI50 (HT29 colon): 6.39 µM; TGI (HT29 colon): 22.7 µM; GI50 (IGROV1 ovarian): 16.7 µM; TGI (IGROV1 ovarian): 34.1 µM; GI50 (K-562 leukemia): 22.4 µM; TGI (K-562 leukemia): 67.3 µM; GI50 (KM12 colon): 15.8 µM; TGI (KM12 colon): 32.2 µM; GI50 (LOX IMVI melanoma): 12.7 µM; TGI (LOX IMVI melanoma): 30.6 µM; GI50 (M14 melanoma): 15.3 µM; TGI (M14 melanoma): 36.8 µM; GI50 (MALME-3M melanoma): 13.4 µM; TGI (MALME-3M melanoma): 32 µM; GI50 (MCF7 breast): 14.7 µM; TGI (MCF7 breast): 31.2 µM; GI50 (MDA-MB-231 breast): 20.2 µM; TGI (MDA-MB-231 breast): 50 µM; GI50 (MDA-MB-435): 14.4 µM; TGI (MDA-MB-435): 28.7 µM; GI50 (MOLT-4 leukemia): 2.85 µM; TGI (MOLT-4 leukemia): 8.53 µM; GI50 (NCI-H226 lung): 14 µM; TGI (NCI-H226 lung): 28.7 µM; GI50 (NCI-H23 lung): 28.8 µM; TGI (NCI-H23 lung): > 100 µM; GI50 (NCI-H460 lung): 18.7 µM; TGI (NCI-H460 lung): 54.6 µM; GI50 (NCI-H522 lung): 3.48 µM; TGI (NCI-H522 lung): 19.4 µM; GI50 (NCI/ADR-RES ovarian): 22.8 µM; TGI (NCI/ADR-RES ovarian): 95.4 µM; GI50 (OVCAR-3 ovarian): 14.4 µM; TGI (OVCAR-3 ovarian): 27.9 µM; GI50 (OVCAR-4 ovarian): 13.1 µM; TGI (OVCAR-4 ovarian): 32 µM; GI50 (OVCAR-5 ovarian): 21.4 µM; TGI (OVCAR-5 ovarian): 43.5 µM; GI50 (OVCAR-8 ovarian): 20.2 µM; TGI (OVCAR-8 ovarian): 50.6 µM; GI50 (PC-3 prostate): 16.1 µM; TGI (PC-3 prostate): 46.4 µM; GI50 (RPMI-8226 leukemia): 14.3 µM; TGI (RPMI-8226 leukemia): 40.7 µM; GI50 (RXF 393 renal): 17.5 µM; TGI (RXF 393 renal): 31.6 µM; GI50 (SF-268 CNS): 20.5 µM; TGI (SF-268 CNS): 57.5 µM; GI50 (SF-295 CNS): 5.35 µM; TGI (SF-295 CNS): 25 µM; GI50 (SF-539 CNS): 20.5 µM; TGI (SF-539 CNS): 45 µM; GI50 (SK-MEL-2 melanoma): 15.7 µM; TGI (SK-MEL-2 melanoma): 34.7 µM; GI50 (SK-MEL-28 melanoma): 15.5 µM; TGI (SK-MEL-28 melanoma): 32.2 µM; GI50 (SK-MEL-5 melanoma): 13.7 µM; TGI (SK-MEL-5 melanoma): 27.2 µM; GI50 (SK-OV-3 ovarian): 37.5 µM; TGI (SK-OV-3 ovarian): > 100 µM; GI50 (SN12C renal): 25.1 µM; TGI (SN12C renal): 71.3 µM; GI50 (SNB-19 CNS): 27.6 µM; TGI (SNB-19 CNS): > 100 µM; GI50 (SNB-75 CNS): 14.9 µM; TGI (SNB-75 CNS): 33.9 µM; GI50 (SR leukemia): 6.69 µM; TGI (SR leukemia): 37.6 µM; GI50 (SW-620 colon): 13 µM; TGI (SW-620 colon): 30.9 µM; GI50 (T-47D breast): 15.6 µM; TGI (T-47D breast): 37.5 µM; GI50 (TK-10 renal): 15 µM; TGI (TK-10 renal): 29.7 µM; GI50 (U251 CNS): 14 µM; TGI (U251 CNS): 30 µM; GI50 (UACC-257 melanoma): 20.9 µM; TGI (UACC-257 melanoma): 54 µM; GI50 (UACC-62 melanoma): 13.6 µM; TGI (UACC-62 melanoma): 28.2 µM; GI50 (UO-31 renal): 14.2 µM; TGI (UO-31 renal): 28.1 µM
